The test system of the experiment is L1210 leukemia ip in BDF1 mice, survival T/C. The experiment in a line: NCI In Vivo Anticancer Drug Screen. Data for tumor model L1210 Leukemia (intraperitoneal) in B6D2F1 (BDF1) mice. As to conditions: endpoint: mean survival time, higher = longer survival. In outline:
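In this screen, tumor-bearing mice given compound are compared to those given vehicle, and their survival values are reported as a treated-to-control quotient.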

The mark [1] stands for this setting: dose: 100.0 mg/kg/injection, schedule: Q04DX002 (ip), vehicle: Klucel (hydroxypropylcellulose) (HPC).
[2] abbreviates: dose: 200.0 mg/kg/injection, schedule: Q04DX002 (ip), vehicle: Klucel (hydroxypropylcellulose) (HPC).
Setting [3] is: dose: 100.0 mg/kg/injection, schedule: Q04DX003 (ip), vehicle: saline.
[4] abbreviates: dose: 200.0 mg/kg/injection, schedule: Q04DX003 (ip), vehicle: saline.
Setting [5] is: dose: 400.0 mg/kg/injection, schedule: Q04DX003 (ip), vehicle: saline.
[6] abbreviates: dose: 100.0 mg/kg/injection, schedule: Q01DX009 (ip), vehicle: saline.
The mark [7] stands for this setting: dose: 200.0 mg/kg/injection, schedule: Q01DX009 (ip), vehicle: saline.
The mark [8] stands for this setting: dose: 400.0 mg/kg/injection, schedule: Q01DX009 (ip), vehicle: saline.
Setting [9] is: dose: 100.0 mg/kg/injection, schedule: Q01DX001 (ip), vehicle: other.
The mark [10] stands for this setting: dose: 200.0 mg/kg/injection, schedule: Q01DX001 (ip), vehicle: other.
The mark [11] stands for this setting: dose: 400.0 mg/kg/injection, schedule: Q01DX001 (ip), vehicle: other.
[12] abbreviates: dose: 75.0 mg/kg/injection, schedule: Q01DX001 (ip), vehicle: carboxymethylcellulose (CMC).
Where [13] appears, read: dose: 100.0 mg/kg/injection, schedule: Q01DX009 (ip), vehicle: Klucel (hydroxypropylcellulose) (HPC).
Setting [14] is: dose: 200.0 mg/kg/injection, schedule: Q01DX009 (ip), vehicle: Klucel (hydroxypropylcellulose) (HPC).
Where [15] appears, read: dose: 25.0 mg/kg/injection, schedule: Q01DX009 (ip), vehicle: saline with Tween-80.
[16] abbreviates: dose: 25.0 mg/kg/injection, schedule: Q04DX003 (ip), vehicle: saline with Tween-80.
The mark [17] stands for this setting: dose: 50.0 mg/kg/injection, schedule: Q01DX009 (ip), vehicle: saline with Tween-80.
Where [18] appears, read: dose: 50.0 mg/kg/injection, schedule: Q04DX003 (ip), vehicle: saline with Tween-80.
Where [19] appears, read: dose: 100.0 mg/kg/injection, schedule: Q04DX003 (ip), vehicle: saline with Tween-80.
The mark [20] stands for this setting: dose: 100.0 mg/kg/injection, schedule: Q04DX003 (ip), vehicle: Klucel (hydroxypropylcellulose) (HPC).
Where [21] appears, read: dose: 200.0 mg/kg/injection, schedule: Q04DX003 (ip), vehicle: Klucel (hydroxypropylcellulose) (HPC).
Setting [22] is: dose: 400.0 mg/kg/injection, schedule: Q04DX003 (ip), vehicle: Klucel (hydroxypropylcellulose) (HPC).
[23] abbreviates: dose: 100.0 mg/kg/injection, schedule: Q01DX001 (ip), vehicle: Klucel (hydroxypropylcellulose) (HPC).
Where [24] appears, read: dose: 200.0 mg/kg/injection, schedule: Q01DX001 (ip), vehicle: Klucel (hydroxypropylcellulose) (HPC).
The mark [25] stands for this setting: dose: 400.0 mg/kg/injection, schedule: Q01DX001 (ip), vehicle: Klucel (hydroxypropylcellulose) (HPC).

Values joined by “and” are separate entries in the source; they are usually repeats but may differ in a detail not shown here. Identical values can stand only once. Toxic doses and inconclusive results are not listed.

Consider 23 compounds from PubChem BioAssay AID248 (DTP/NCI, 2004).

`O=Cc1cccn1-c1ccc2ncccc2c1[N+](=O)[O-]`: the T/C was 90 % of control (dose: 50.0 mg/kg/injection, schedule: Q04DX002 (ip), vehicle: Klucel (hydroxypropylcellulose) (HPC)); 111 % of control under setting [1]; 93 % of control under setting [2].

`CSc1nc2ncnn2c(=O)[nH]1`: the T/C by setting is: (dose: 50.0 mg/kg/injection, schedule: Q04DX003 (ip), vehicle: saline) 96 % of control; under setting [3], 94 % of control; under setting [4], 100 % of control; under setting [5], 92 % of control.

`O=C(O)C1C2CCCCC21` (stereo unspecified): the T/C reads like this: under setting [6], 97 % of control; under setting [3], 102 % of control; under setting [7], 97 % of control; under setting [4], 103 % of control; under setting [8], 90 % of control; under setting [5], 94 % of control.

In the case of `CC(C)CC([NH-])C(=O)[O-].O=C(O)C(=O)O.[Co+3].[NH-]CCN(CC[NH-])CC[NH-]`, the T/C is, setting by setting: (dose: 50.0 mg/kg/injection, schedule: Q01DX001 (ip), vehicle: other) 92 % of control; under setting [9], 100 % of control; under setting [10], 94 % of control; under setting [11], 86 % of control.

With `[Cl][Sn]([Cl])([Cl])[Cl]`, the T/C under setting [3] is 95 % of control.

Consider `Nc1c(-c2ccccc2)nnn1-c1cccc(Cl)c1`, for which the T/C runs as follows: (dose: 25.0 mg/kg/injection, schedule: Q04DX002 (ip), vehicle: gum acacia) 95 % of control; (dose: 50.0 mg/kg/injection, schedule: Q04DX002 (ip), vehicle: gum acacia) 95 % of control; (dose: 100.0 mg/kg/injection, schedule: Q04DX002 (ip), vehicle: gum acacia) 96 % of control and 98 % of control.

As for `O=C(COc1ccc(Cl)cc1Cl)OCCCl`, the T/C under setting [1] is 94 % of control and the T/C under setting [2] is 105 % of control.

For `CNCc1cccc2ccccc12`, the T/C under setting [12] was 101 % of control; the T/C (dose: 150.0 mg/kg/injection, schedule: Q01DX001 (ip), vehicle: carboxymethylcellulose (CMC)) is 101 % of control; the T/C (dose: 300.0 mg/kg/injection, schedule: Q01DX001 (ip), vehicle: carboxymethylcellulose (CMC)) was 107 % of control.

As for `CN(C)c1ccc2[nH]c(=O)c3ccccc3c2c1`, the T/C under setting [12] is 101 % of control.

Turning to `CS(=O)(=O)N(c1ccccc1)c1ccccc1[N+](=O)[O-]`, the T/C is, setting by setting: under setting [9], 117 % of control; under setting [10], 96 % of control; under setting [11], 111 % of control.

`CCOC(=O)c1cnc(SC)nc1NCCc1ccccc1`: the T/C was 98 % of control under setting [13]; 91 % of control under setting [14]; 95 % of control (dose: 400.0 mg/kg/injection, schedule: Q01DX009 (ip), vehicle: Klucel (hydroxypropylcellulose) (HPC)).

Take `O=NN(CCCl)C(=O)Nc1cccc([N+](=O)[O-])c1`: the T/C was 152 % of control (dose: 12.0 mg/kg/injection, schedule: Q01DX001 (ip), vehicle: carboxymethylcellulose (CMC)); 156 % of control (dose: 18.0 mg/kg/injection, schedule: Q01DX001 (ip), vehicle: carboxymethylcellulose (CMC)); 176 % of control (dose: 26.0 mg/kg/injection, schedule: Q01DX001 (ip), vehicle: carboxymethylcellulose (CMC)); 174 % of control (dose: 40.0 mg/kg/injection, schedule: Q01DX001 (ip), vehicle: carboxymethylcellulose (CMC)); 91 % of control (dose: 60.0 mg/kg/injection, schedule: Q01DX001 (ip), vehicle: carboxymethylcellulose (CMC)).

In the case of `Cc1cc2ccccc2oc1=O`, the T/C is, setting by setting: under setting [15], 101 % of control; under setting [16], 98 % of control; under setting [17], 114 % of control; under setting [18], 93 % of control; (dose: 100.0 mg/kg/injection, schedule: Q01DX009 (ip), vehicle: saline with Tween-80) 107 % of control; under setting [19], 86 % of control.

On to `CCCN1c2c(nc(N)[nH]c2=O)NCC1CNc1ccc(C(=O)NC(CCC(=O)O)C(=O)O)cc1` (stereo unspecified), for which the T/C under setting [6] is 96 % of control; the T/C under setting [3] was 108 % of control; the T/C under setting [7] was 101 % of control; the T/C under setting [4] is 97 % of control; the T/C under setting [8] is 96 % of control; the T/C under setting [5] was 101 % of control.

Regarding `Cc1nc(C)c(C(=O)N/N=C/c2ccc(N(CCCl)CCCl)cc2)s1`, the T/C is 94 % of control (dose: 50.0 mg/kg/injection, schedule: Q01DX001 (ip), vehicle: carboxymethylcellulose (CMC)); 94 % of control (dose: 100.0 mg/kg/injection, schedule: Q01DX001 (ip), vehicle: carboxymethylcellulose (CMC)); 97 % of control (dose: 200.0 mg/kg/injection, schedule: Q01DX001 (ip), vehicle: carboxymethylcellulose (CMC)); 94 % of control (dose: 400.0 mg/kg/injection, schedule: Q01DX001 (ip), vehicle: carboxymethylcellulose (CMC)).

Regarding `CC(C)=CCN1CCN=C(c2ccccc2)c2cc(Cl)ccc21`, the T/C is 100 % of control (dose: 50.0 mg/kg/injection, schedule: Q01DX009 (ip), vehicle: Klucel (hydroxypropylcellulose) (HPC)); 105 % of control under setting [13]; 102 % of control under setting [20]; 94 % of control under setting [14]; 98 % of control under setting [21]; 93 % of control under setting [22].

With `CC(=O)Oc1c(C)c(Br)c(OC(C)=O)c(-c2c(C)cc(C)c(Br)c2C)c1Br`, the T/C is 87 % of control under setting [23]; 100 % of control under setting [20]; 95 % of control under setting [24]; 95 % of control under setting [21]; 95 % of control under setting [25]; 101 % of control under setting [22].

For the compound `C/C=C/C1N(C)CCCN1C`, the T/C reads like this: under setting [15], 97 % of control; under setting [16], 102 % of control; under setting [17], 98 % of control; under setting [18], 93 % of control; under setting [19], 91 % of control.

Turning to `O=P(C1CCCCC1)(C1CCCCC1)C1CCCCC1`, the T/C reads like this: under setting [13], 89 % of control; under setting [14], 97 % of control.

Take `COC1=C[C@]23CCCN2C[C@H](O)c2cc4c(cc2[C@@H]3[C@@H]1O)OCO4`: the T/C reads like this: (dose: 15.0 mg/kg/injection, schedule: Q01DX009 (ip), vehicle: saline) 108 % of control; (dose: 30.0 mg/kg/injection, schedule: Q01DX009 (ip), vehicle: saline) 104 % of control; (dose: 60.0 mg/kg/injection, schedule: Q01DX009 (ip), vehicle: saline) 100 % of control.

Take `CS(=O)(=O)Oc1ccccc1N(S(C)(=O)=O)S(C)(=O)=O`: the T/C is 107 % of control under setting [23]; 107 % of control under setting [20]; 110 % of control under setting [24]; 107 % of control under setting [21]; 104 % of control under setting [25]; 102 % of control under setting [22].

Turning to `Cc1cccc(NC(=O)Nc2ccc(Cl)cc2)c1C`, the T/C (dose: 100.0 mg/kg/injection, schedule: Q01DX009 (ip), vehicle: gum acacia) is 100 % of control; the T/C (dose: 100.0 mg/kg/injection, schedule: Q04DX003 (ip), vehicle: gum acacia) is 95 % of control; the T/C (dose: 200.0 mg/kg/injection, schedule: Q01DX009 (ip), vehicle: gum acacia) is 100 % of control; the T/C (dose: 200.0 mg/kg/injection, schedule: Q04DX003 (ip), vehicle: gum acacia) was 95 % of control; the T/C (dose: 400.0 mg/kg/injection, schedule: Q01DX009 (ip), vehicle: gum acacia) was 92 % of control; the T/C (dose: 400.0 mg/kg/injection, schedule: Q04DX003 (ip), vehicle: gum acacia) is 97 % of control.

`O=[N+]([O-])c1ccc(C2N=NCCS2)cc1` (stereo unspecified): the T/C under setting [23] is 98 % of control, the T/C under setting [24] was 104 % of control and the T/C under setting [25] was 95 % of control.
